Source: patent US20240269155A1, “METHODS AND USES OF BORON COMPOUNDS IN THE TREATMENT OF NONTUBERCULOUS MYCOBACTERIUM INFECTIONS AND PHARMACEUTICAL COMPOSITIONS FOR TREATMENT OF SAME” (priority 2022, published 2024)
Like-named read-outs stand apart in the source and are kept apart here.

How the values were obtained:
[1] = test system: clinical isolates of M. abscessus complex; assay: MBC against clinical isolates of M. abscessus complex; assay type: cell-based, M. abscessus and M. massiliense; settings: for Classification: from MBC/MIC ratio
M. abscessus CIP108297 = assay: M. abscessus mouse lung infection model; assay type: in vivo, BALB/c mice
Protocol: To establish the efficacy of the compounds described herein in vivo, an M. abscessusmouse lung infection model was performed. Groups of BALB/c mice (The mice were randomly divided into groups with 6 mice in each group) were administered cyclophosphamide one week before infection, and then inoculated intranasally with M. abscessus CIP108297 (10^7 CFU/mouse). Three days after infection, the mice were subsequently treated with 10 mg/kg of the compound of Example 4 or GSK656 administered daily by subcutaneous, or 100 mg/kg linezolid (an approved antibiotic) or 200 mg/kg clarithromycin (an approved antibiotic) administered daily by oral gavage. […] This may be attributed to the surprising finding of lower MBC in the compound of Example 4.

[2] = Lung distribution study in mouse; assay type: in vivo, Balb/C mouse; settings: 10 mg/kg iv
M. gordonae = assay: MIC determination (CLSI M24-A2); assay type: cell-based, Mycobacterium gordonae
Protocol: (§1) The in vitro activity of the parent boron compound described herein was assessed by standard testing procedures such as the determination of minimum inhibitory concentration (MIC) as described in Clinical and Laboratory Standards Institute (CLSI) document M24-A2. Lower MIC values indicate high antibacterial activity, while higher MIC values indicate a reduced antibacterial activity. Generally, MIC values of about ≤2 mg/L indicate a good therapeutic (i.e., suitable for therapy) potency for antibacterial drugs, while MIC values of ≥8 mg/L indicate a lack of therapeutically useful activity for a test compound.
(§2) (MIC ranges from 0.063-2 mg/L).

[3] = Rat PK model, intravenous or oral gavage; assay type: in vivo, SD rats; settings: 5 mg/kg, parent compound Example 4 quantified
Source text: To further elucidate the therapeutic potential of drug compounds, pharmacokinetic (PK) data is often used to establish key parameters predictive of a therapy outcome, such as the area under the curve (AUC) of a plot monitoring the change in systemic drug concentration over time. A higher AUC value indicates a greater exposure to the drug, commonly associated with a greater therapeutic potential due to a higher amount of drug available to combat the infection. In contrast, a lower AUC value indicates a reduced exposure to the drug, resulting in a reduced amount of antibiotic available to combat bacterial infections. To that end, the compounds described herein were tested in the rat PK model of oral administration performed analogously to the methods described in the monograph Current Protocols in Pharmacology, 2005, 7.1.1-7.1.26, John Wiley & Sons, Inc.
All the compounds were administered to SD rats (The rats were randomly divided into groups with 3 rats in each group) by intravenous or oral gavage. The prodrugs convert to the parent drug molecule in vivo. Therefore, only the parent compound Example 4 was analyzed and quantified in all test samples. […] Furthermore, based on the known comparison of rodent tests to human data (such as known species-to-species PK scaling), this is possible with a lower dosage for therapy in humans.

M. massiliense = assay: MIC determination (CLSI M24-A2); assay type: cell-based, Mycobacterium massiliense
Protocol: as §1, §2

M. intercelleulare = assay: MIC determination (CLSI M24-A2); assay type: cell-based, Mycobacterium intercelleulare
Protocol: as §1, §2

M. abscessus = assay: MIC determination (CLSI M24-A2); assay type: cell-based, Mycobacterium abscessus
Protocol: as §1, §2

M. peregrinum = assay: MIC determination (CLSI M24-A2); assay type: cell-based, Mycobacterium peregrinum
Protocol: as §1, §2

M. smegmatis = assay: MIC determination (CLSI M24-A2); assay type: cell-based, Mycobacterium smegmatis
Protocol: as §1, §2

M. fortuitum = assay: MIC determination (CLSI M24-A2); assay type: cell-based, Mycobacterium fortuitum
Protocol: as §1, §2

Mycobacteria pathogens = assay: MIC against mycobacteria pathogens, summary over species; assay type: cell-based, nontuberculous Mycobacterium; settings: for MIC range: M. intercelleulare, M. fortuitum, M. peregrinum, M. smegmatis, M. massiliense
[4] = test system: clinical isolates of M. abscessus complex; assay: MIC against clinical isolates of M. abscessus complex; assay type: cell-based, M. abscessus and M. massiliense
M. avium = assay: MIC determination (CLSI M24-A2); assay type: cell-based, Mycobacterium avium
Protocol: as §1, §2

M. scrofulaceum = assay: MIC determination (CLSI M24-A2); assay type: cell-based, Mycobacterium scrofulaceum
Protocol: as §1, §2

[5] = 20 clinical isolates of M. abscessus complex

For “[(2S,6R)-2-(Aminomethyl)-4-bora-3,5,8-trioxatricyclo[7.3.1.04,13]trideca-1(12),10-dien-6-yl]methanol hydrochloride [Example 4]”, the MBC [1] was 0.125 µg/mL, the “MBC compared with GSK656” value [1, 5] was “much lower MBC against all isolates tested” and the “bactericidal/bacteriostatic classification over the isolates” value [1, 5] was “bactericidal against half of the isolates”. The MBC ([1]; clinical isolate A35) was 0.25 µg/mL, the Classification ([1]; clinical isolate A35) was “Bactericidal (bactericidal if the MBC/MIC ratio was <4)” and the MBC ([1]; clinical isolate A51) was 0.25 µg/mL. The Classification ([1]; clinical isolate A51) was “Bactericidal (bactericidal if the MBC/MIC ratio was <4)”, the MBC ([1]; clinical isolate A197) was 1 µg/mL and the Classification ([1]; clinical isolate A197) was “Bacteriostatic (bacteriostatic if the ratio was >4)”. The MBC ([1]; clinical isolate A213) was 0.25 µg/mL, the Classification ([1]; clinical isolate A213) was “Bactericidal (bactericidal if the MBC/MIC ratio was <4)” and the MBC ([1]; clinical isolate A215) was 0.5 µg/mL. The Classification ([1]; clinical isolate A215) was “Bacteriostatic (bacteriostatic if the ratio was >4)”, the MBC ([1]; clinical isolate A217) was 0.5 µg/mL and the Classification ([1]; clinical isolate A217) was “Bacteriostatic (bacteriostatic if the ratio was >4)”. For the same substance, the MBC ([1]; clinical isolate A222) was 0.25 µg/mL, the Classification ([1]; clinical isolate A222) was “Bactericidal (bactericidal if the MBC/MIC ratio was <4)” and the Classification ([1]; clinical isolate A232) was “Bactericidal (bactericidal if the MBC/MIC ratio was <4)”. The MBC ([1]; clinical isolate A255) was 0.25 µg/mL, the Classification ([1]; clinical isolate A255) was “Bactericidal (bactericidal if the MBC/MIC ratio was <4)” and the MBC ([1]; clinical isolate A268) was 2 µg/mL. The Classification ([1]; clinical isolate A268) was “Bacteriostatic (bacteriostatic if the ratio was >4)”, the MBC ([1]; clinical isolate A274) was 2 µg/mL and the Classification ([1]; clinical isolate A274) was “Bacteriostatic (bacteriostatic if the ratio was >4)”. For the same substance, the MBC ([1]; clinical isolate A311) was 0.25 µg/mL, the Classification ([1]; clinical isolate A311) was “Bactericidal (bactericidal if the MBC/MIC ratio was <4)” and the MBC ([1]; clinical isolate A353) was 0.25 µg/mL. The Classification ([1]; clinical isolate A353) was “Bactericidal (bactericidal if the MBC/MIC ratio was <4)”, the MBC ([1]; clinical isolate G73) was 1 µg/mL and the Classification ([1]; clinical isolate G73) was “Bacteriostatic (bacteriostatic if the ratio was >4)”. For the same substance, the MBC ([1]; clinical isolate G74) was 1 µg/mL, the Classification ([1]; clinical isolate G74) was “Bacteriostatic (bacteriostatic if the ratio was >4)” and the MBC ([1]; clinical isolate G87) was 0.5 µg/mL. The Classification ([1]; clinical isolate G87) was “Bacteriostatic (bacteriostatic if the ratio was >4)”, the MBC ([1]; clinical isolate G104) was 0.25 µg/mL and the Classification ([1]; clinical isolate G104) was “Bactericidal (bactericidal if the MBC/MIC ratio was <4)”. For the same substance, the MBC ([1]; clinical isolate G110) was 1 µg/mL, the Classification ([1]; clinical isolate G110) was “Bacteriostatic (bacteriostatic if the ratio was >4)” and the MBC ([1]; clinical isolate G164) was 0.25 µg/mL. The Classification ([1]; clinical isolate G164) was “Bactericidal (bactericidal if the MBC/MIC ratio was <4)”, the MBC ([1]; clinical isolate G182) was 1 µg/mL and the Classification ([1]; clinical isolate G182) was “Bacteriostatic (bacteriostatic if the ratio was >4)”. The “reduction in bacteria in the lungs compared to the untreated groups” value (M. abscessus CIP108297; 10 mg/kg daily subcutaneous, treatment from 3 days after infection, lung CFU at 2 weeks post-infection) was about 7.8 log 10 CFU, the “lung pathology, H&E stained tissue sections” value (M. abscessus CIP108297; 2-weeks post-infection, treated group) was “pathologic changes were rare and lung lesions were negligible” and the “organisms in the lungs compared to animals treated with GSK656” value (M. abscessus CIP108297; both 10 mg/kg daily subcutaneous, 2 weeks post-infection) was “reduced markedly”. For the same substance, the “AUC ratio (lung/plasma)” value ([2]; analyte Example 4) was 2.39, the AUClast ([2]; analyte Example 4, lung) was 12822 ng·h/g and the t1/2 ([2]; analyte Example 4, lung) was 1.46 h. It also gave an AUClast ([2]; analyte Example 4, plasma) of 5359 ng·h/mL, a t1/2 ([2]; analyte Example 4, plasma) of 1.87 h and an MIC (M. gordonae) of 0.5 µg/mL. For the same substance, the AUC ([3]; iv) was 5661 ng·h/mL, the Cmax ([3]; iv) was 6776 ng/mL and the AUC ([3]; oral) was 856 ng·h/mL. The Cmax ([3]; oral) was 139 ng/mL, the Oral bioavailability ([3]; oral) was 15% and the MIC (M. massiliense) was 0.063 µg/mL. The MIC (M. intercelleulare) was 2 µg/mL, the MIC (M. abscessus) was 0.063 µg/mL and the MIC (M. peregrinum) was 0.125 µg/mL. For the same substance, the MIC (M. smegmatis) was 0.125 µg/mL, the MIC (M. fortuitum) was 0.125 µg/mL and the “fold more potent than GSK656 (MIC)” value (Mycobacteria pathogens; M. avium and M. intercelleulare) was 4 fold. The MIC range (Mycobacteria pathogens; across M. scrofulaceum, M. gordonae, M. avium, M. abscessus) was 0.063 to 2 µg/mL, the MIC range (Mycobacteria pathogens; rapidly growing mycobacteria (RGM): M. abscessus) was 0.063 to 0.125 µg/mL and the MIC [4] was 0.063 µg/mL. The MIC ([4]; clinical isolate A35) was 0.063 µg/mL, the MIC ([4]; clinical isolate A51) was 0.063 µg/mL and the MIC ([4]; clinical isolate A197) was 0.063 µg/mL. It also gave an MIC ([4]; clinical isolate A215) of 0.063 µg/mL, an MIC ([4]; clinical isolate A217) of 0.063 µg/mL and an MIC ([4]; clinical isolate A222) of 0.063 µg/mL. For the same substance, the MIC ([4]; clinical isolate A255) was 0.063 µg/mL, the MIC ([4]; clinical isolate A311) was 0.063 µg/mL and the MIC ([4]; clinical isolate G73) was 0.063 µg/mL. For the same substance, the MIC ([4]; clinical isolate G74) was 0.063 µg/mL, the MIC ([4]; clinical isolate G87) was 0.063 µg/mL and the MIC ([4]; clinical isolate G110) was 0.063 µg/mL. For the same substance, the MIC ([4]; clinical isolate G164) was 0.063 µg/mL, the MIC ([4]; clinical isolate G182) was 0.063 µg/mL and the MIC (M. avium) was 2 µg/mL. For the same substance, the MIC (M. scrofulaceum) was 0.25 µg/mL.
